# Measurements reported in patent US9006242B2, “Substituted benzene compounds” (Epizyme, Inc., priority 2012, dated 2015).
# Like-named read-outs stand apart in the source and are kept apart here.
# How the values were obtained:
# CYP1A [1] = assay: CYP induction in cryopreserved human hepatocytes (mRNA), CYP1A; format: in vitro ADME; details: positive control β-naphthoflavone
# CYP2B6 = assay: CYP induction in cryopreserved human hepatocytes (mRNA), CYP2B6; format: in vitro ADME; details: positive control phenobarbital
# CYP2C9 [2] = assay: CYP induction in cryopreserved human hepatocytes (mRNA), CYP2C9; format: in vitro ADME; details: positive control rifampicin
# CYP3A = assay: CYP induction in cryopreserved human hepatocytes (mRNA), CYP3A; format: in vitro ADME; details: positive control rifampicin
# [3] = test system: cryopreserved human hepatocytes; assay: Fraction of hepatocytes remaining (DAPI cell count) in CYP induction study; format: cell-based; details: 48 hours
# Procedure: After completion of the incubation, the cells were washed with DPBS. After washing with DPBS, the cells were fixed using 3.7% p-formaldehyde in DPBS for one hour. The formaldehyde was removed and 0.6 μmol/L DAPI in DPBS was added. The cells were stained by DAPI for 20 minutes and then washed three times with DPBS. Cells were counted using an ArrayScan II (Cellomics, Pittsburgh, Pa.) with a 5× objective lens. Fraction of hepatocytes remaining was calculated using the number of cells found at a treatment condition divided by cells found with the vehicle control.
# CYP3A4/5 [4] = assay: Time-dependent inactivation (TDI) of CYP3A4/5 in human liver microsomes; format: in vitro ADME; details: for inactivation of CYP3A4/5 (in words): using midazolam as probe
# Karpas-422 xenograft = assay: Efficacy study in Karpas-422 xenograft model; format: in vivo, mice
# [5] = format: in vivo; details: oral, BID, up to 28 days, Karpas-422 xenograft mice
# CYP2C19 = CYP2C19 (Homo sapiens (Human), UniProt P33261); details: read-out: Reversible inhibition IC50 CYP2C19; human liver microsomes
# CYP1A [6] = assay: in vitro; details: human, pooled human liver microsomes, pH 7.4
# CYP2C9 [7] = assay: in vitro; details: human, pooled human liver microsomes, pH 7.4
# CYP3A4/5 [8] = assay: in vitro; details: human, pooled human liver microsomes
# [9] = Metabolic stability in rat liver microsomes; details: pH 7.4
# [10] = Metabolic stability in dog liver microsomes; details: pH 7.4
# [11] = Metabolic stability in mouse liver microsomes; details: pH 7.4
# [12] = Metabolic stability in human liver microsomes; details: for metabolic clearance in human liver microsomes (in words): HLM; for CLint scaled: human, human liver microsomes, pH 7.4
# [13] = Metabolic stability in monkey liver microsomes; details: cynomolgus monkey, pH 7.4
# CYP2C8 = CYP2C8 (Homo sapiens (Human), UniProt P10632); assay: Reversible CYP inhibition in pooled human liver microsomes, CYP2C8; details: read-out: Reversible inhibition IC50 CYP2C8
# [14] = test system: human cytochromes P450 (CYP); assay: Reversible CYP inhibition in human liver microsomes, overall assessment
# CYP2D6 = CYP2D6 (Homo sapiens (Human), UniProt P10635); assay: Reversible CYP inhibition in pooled human liver microsomes, CYP2D6; details: read-out: Reversible inhibition IC50 CYP2D6
# [15] = biological target: wild-type EZH2 (PRC2 complex) (Homo sapiens (Human), UniProt Q15910); assay: Wild-type PRC2 enzyme assay (WT EZH2)
# EZH2 (PRC2 complex) = EZH2 (PRC2 complex) (Homo sapiens (Human), UniProt Q15910); assay: PRC2 enzyme assay on peptide substrate (EZH2 peptide v2)
# [16] = pH 7.4, probe testosterone (250 μmol/L), CYP3A4/5, human liver microsomes, read-out: Time-Dependent Inactivation KI
# Sequence of CYP2C19 (P33261 whole entry): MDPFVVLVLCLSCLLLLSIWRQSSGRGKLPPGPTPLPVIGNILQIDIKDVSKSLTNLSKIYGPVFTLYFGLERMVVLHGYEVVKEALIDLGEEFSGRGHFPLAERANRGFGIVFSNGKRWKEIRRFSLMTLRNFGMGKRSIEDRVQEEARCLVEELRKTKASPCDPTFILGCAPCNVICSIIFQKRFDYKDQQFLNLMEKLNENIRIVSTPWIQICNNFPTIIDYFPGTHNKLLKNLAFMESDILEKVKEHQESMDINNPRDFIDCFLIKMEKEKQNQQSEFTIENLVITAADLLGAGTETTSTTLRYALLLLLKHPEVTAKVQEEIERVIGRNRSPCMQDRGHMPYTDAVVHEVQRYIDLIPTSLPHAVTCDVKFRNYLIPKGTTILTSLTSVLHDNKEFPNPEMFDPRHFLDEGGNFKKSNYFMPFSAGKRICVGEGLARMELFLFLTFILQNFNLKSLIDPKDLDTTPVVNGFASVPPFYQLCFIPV
# Sequence of CYP2D6 (P10635 whole entry): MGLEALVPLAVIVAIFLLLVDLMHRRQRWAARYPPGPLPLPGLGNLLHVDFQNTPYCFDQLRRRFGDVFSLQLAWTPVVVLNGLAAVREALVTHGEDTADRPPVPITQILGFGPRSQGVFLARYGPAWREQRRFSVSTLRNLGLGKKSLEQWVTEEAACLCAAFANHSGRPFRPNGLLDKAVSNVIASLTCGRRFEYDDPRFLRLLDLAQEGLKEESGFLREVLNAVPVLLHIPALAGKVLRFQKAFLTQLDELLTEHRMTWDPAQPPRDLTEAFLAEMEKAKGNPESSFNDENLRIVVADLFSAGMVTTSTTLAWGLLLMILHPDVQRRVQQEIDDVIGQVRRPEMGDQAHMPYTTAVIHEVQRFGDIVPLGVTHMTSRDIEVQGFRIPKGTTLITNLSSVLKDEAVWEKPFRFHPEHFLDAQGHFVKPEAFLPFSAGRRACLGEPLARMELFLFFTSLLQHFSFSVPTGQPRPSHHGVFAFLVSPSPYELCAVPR
# Sequence of CYP2C8 (P10632 whole entry): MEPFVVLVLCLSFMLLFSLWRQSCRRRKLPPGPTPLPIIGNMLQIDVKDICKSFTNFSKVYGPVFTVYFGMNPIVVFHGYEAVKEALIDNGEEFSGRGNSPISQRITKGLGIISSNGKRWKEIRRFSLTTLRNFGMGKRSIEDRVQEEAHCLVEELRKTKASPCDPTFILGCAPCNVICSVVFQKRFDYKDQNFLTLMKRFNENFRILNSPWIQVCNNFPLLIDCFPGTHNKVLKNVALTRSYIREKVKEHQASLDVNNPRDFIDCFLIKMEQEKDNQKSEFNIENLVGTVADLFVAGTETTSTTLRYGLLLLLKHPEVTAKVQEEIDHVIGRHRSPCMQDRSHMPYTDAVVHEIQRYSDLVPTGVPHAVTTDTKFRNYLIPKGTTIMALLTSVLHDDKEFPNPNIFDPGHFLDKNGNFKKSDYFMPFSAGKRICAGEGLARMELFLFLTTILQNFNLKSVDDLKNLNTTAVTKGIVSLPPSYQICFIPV
# Sequence of wild-type EZH2 (PRC2 complex) (Q15910 other isoform, or with tags, fused parts or gaps): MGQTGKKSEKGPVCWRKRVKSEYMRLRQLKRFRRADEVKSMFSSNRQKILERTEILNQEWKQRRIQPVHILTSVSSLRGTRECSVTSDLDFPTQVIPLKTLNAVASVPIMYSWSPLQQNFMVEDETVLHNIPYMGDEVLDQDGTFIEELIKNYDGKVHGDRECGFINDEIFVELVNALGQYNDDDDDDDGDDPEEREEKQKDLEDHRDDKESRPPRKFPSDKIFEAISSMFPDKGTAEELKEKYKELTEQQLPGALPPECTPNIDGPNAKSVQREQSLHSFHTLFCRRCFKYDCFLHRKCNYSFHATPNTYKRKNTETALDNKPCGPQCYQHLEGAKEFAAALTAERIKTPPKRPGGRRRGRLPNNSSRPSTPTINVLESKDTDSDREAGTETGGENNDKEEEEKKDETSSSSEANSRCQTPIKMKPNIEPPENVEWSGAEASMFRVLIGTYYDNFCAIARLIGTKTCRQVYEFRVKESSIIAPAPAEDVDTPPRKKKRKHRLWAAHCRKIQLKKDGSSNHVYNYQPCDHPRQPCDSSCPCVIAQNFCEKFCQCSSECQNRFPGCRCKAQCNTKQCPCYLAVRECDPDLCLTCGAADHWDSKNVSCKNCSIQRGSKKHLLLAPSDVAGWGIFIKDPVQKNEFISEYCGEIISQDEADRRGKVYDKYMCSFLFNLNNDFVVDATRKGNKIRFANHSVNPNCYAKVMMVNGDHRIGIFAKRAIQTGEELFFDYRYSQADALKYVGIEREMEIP
# Sequence of wild-type EZH2 (PRC2 complex) (O75530 whole entry partner): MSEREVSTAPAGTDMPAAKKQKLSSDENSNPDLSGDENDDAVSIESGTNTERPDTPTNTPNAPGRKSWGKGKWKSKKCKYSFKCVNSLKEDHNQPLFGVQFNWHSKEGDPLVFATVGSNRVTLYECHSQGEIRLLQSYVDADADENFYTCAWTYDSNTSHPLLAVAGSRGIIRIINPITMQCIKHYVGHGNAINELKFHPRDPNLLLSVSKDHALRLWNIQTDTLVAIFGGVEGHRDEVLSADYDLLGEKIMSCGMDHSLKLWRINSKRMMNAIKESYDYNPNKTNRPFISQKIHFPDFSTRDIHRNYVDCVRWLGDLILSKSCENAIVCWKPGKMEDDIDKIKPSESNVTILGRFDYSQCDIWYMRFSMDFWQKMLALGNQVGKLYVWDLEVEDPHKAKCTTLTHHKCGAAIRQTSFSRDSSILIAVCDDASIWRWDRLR
# Sequence of wild-type EZH2 (PRC2 complex) (Q15022 whole entry partner): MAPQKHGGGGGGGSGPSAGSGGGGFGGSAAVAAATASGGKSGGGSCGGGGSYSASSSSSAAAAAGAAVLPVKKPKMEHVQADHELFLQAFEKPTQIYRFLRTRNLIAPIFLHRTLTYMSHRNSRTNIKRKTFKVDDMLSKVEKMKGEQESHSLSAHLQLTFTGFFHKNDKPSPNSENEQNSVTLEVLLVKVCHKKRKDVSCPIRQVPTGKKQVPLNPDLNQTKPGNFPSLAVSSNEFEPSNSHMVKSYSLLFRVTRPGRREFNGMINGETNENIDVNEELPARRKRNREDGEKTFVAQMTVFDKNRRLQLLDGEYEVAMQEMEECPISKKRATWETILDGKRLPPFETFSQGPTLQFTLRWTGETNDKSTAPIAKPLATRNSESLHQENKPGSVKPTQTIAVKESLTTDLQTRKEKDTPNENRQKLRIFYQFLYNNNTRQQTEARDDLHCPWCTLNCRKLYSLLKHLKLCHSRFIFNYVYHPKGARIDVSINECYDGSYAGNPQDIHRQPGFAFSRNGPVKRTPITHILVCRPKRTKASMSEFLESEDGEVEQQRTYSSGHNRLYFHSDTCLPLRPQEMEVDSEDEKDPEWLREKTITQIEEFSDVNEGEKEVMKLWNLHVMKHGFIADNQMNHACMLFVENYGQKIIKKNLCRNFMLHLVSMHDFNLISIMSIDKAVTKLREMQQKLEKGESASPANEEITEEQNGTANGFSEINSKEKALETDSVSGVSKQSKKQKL
# Sequence of wild-type EZH2 (PRC2 complex) (Q09028 whole entry partner): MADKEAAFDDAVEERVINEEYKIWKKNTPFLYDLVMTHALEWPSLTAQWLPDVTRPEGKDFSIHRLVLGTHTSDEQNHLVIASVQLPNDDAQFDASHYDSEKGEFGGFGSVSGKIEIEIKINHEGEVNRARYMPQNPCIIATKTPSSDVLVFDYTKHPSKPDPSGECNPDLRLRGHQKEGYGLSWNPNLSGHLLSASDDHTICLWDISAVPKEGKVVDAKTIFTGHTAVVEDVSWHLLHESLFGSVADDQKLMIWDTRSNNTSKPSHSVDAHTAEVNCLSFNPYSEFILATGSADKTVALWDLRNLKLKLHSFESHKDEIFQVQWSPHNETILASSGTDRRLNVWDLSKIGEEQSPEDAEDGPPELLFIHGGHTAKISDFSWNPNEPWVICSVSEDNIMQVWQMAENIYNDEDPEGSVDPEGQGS
# Sequence of EZH2 (PRC2 complex) (Q15910 other isoform, or with tags, fused parts or gaps): as the sequence (Q15910 other isoform, or with tags, fused parts or gaps) above
# Sequence of EZH2 (PRC2 complex) (O75530 whole entry partner): as the sequence (O75530 whole entry partner) above
# Sequence of EZH2 (PRC2 complex) (Q15022 whole entry partner): as the sequence (Q15022 whole entry partner) above
# Sequence of EZH2 (PRC2 complex) (Q09028 whole entry partner): as the sequence (Q09028 whole entry partner) above
SMILES,CYP1A % Positive Control (CYP1A [1]; 1 μM),CYP1A % Positive Control (CYP1A [1]; 10 μM),CYP2B6 % Positive Control (CYP2B6; 1 μM),CYP2B6 % Positive Control (CYP2B6; 10 μM),% Cell Remaining vs. Control ([3]; 1 μM),% Cell Remaining vs. Control ([3]; 10 μM),KI (inactivation) (CYP3A4/5 [4]; [16]),inactivation of CYP3A4/5 (in words) (CYP3A4/5 [4]),IC50 (CYP2C19),IC50 (CYP1A [6]),IC50 (CYP2C9 [7]),"IC50 (CYP3A4/5 [8]; pH 7.4, probe midazolam)","IC50 (CYP3A4/5 [8]; pH 7.4, probe testosterone)",CLint scaled [9],CLint scaled [10],CLint scaled [11],metabolic clearance in human liver microsomes (in words) [12],CLint scaled [12],CLint scaled [13],reversible CYP inhibition (in words) [14],further results
"CCN(c1cc(-c2ccc(OCCOC)cc2)cc(C(=O)NCc2c(C)cc(C)[nH]c2=O)c1C)[C@H]1CC[C@H](N(C)C)CC1 [Compound 1, N-((4,6-dimethyl-2-oxo-1,2-dihydropyridin-3-yl)methyl)-5-(((trans)-4-(dimethylamino)-cyclohexyl)(ethyl)-amino)-4′-(2-methoxyethoxy)-4-methyl-[1,1′-biphenyl]-3-carboxamide]",2.8%,3.0%,18.0%,26.3%,107.44%,99.00%,6.4 µM,"time-, concentration-, and NADPH-dependent inactivation of CYP3A4/5",89.6 µM,> 100 µM,> 100 µM,40.5 µM,> 100 µM,14.8 mL/min/kg,8.1 mL/min/kg,15.4 mL/min/kg,low metabolic clearance,10.5 mL/min/kg,58.6 mL/min/kg,no significant reversible inhibition,"CYP2C9 % Positive Control (CYP2C9 [2]; 1 μM): 43.5%; CYP2C9 % Positive Control (CYP2C9 [2]; 10 μM): 52.6%; CYP3A % Positive Control (CYP3A; 1 μM): 13.9%; CYP3A % Positive Control (CYP3A; 10 μM): 13.3%; KI (inactivation) (CYP3A4/5 [4]; human, human liver microsomes, pH 7.4, CYP3A4/5, footnote to ** not given, read-out: Time-Dependent Inactivation KI, second value in brackets marked **): 3.3 µM; tumors large enough for analysis at day 28 (Karpas-422 xenograft; 125 mg/kg BID x28, p.o.): 5 out of 10; tumors large enough for analysis at day 28 (Karpas-422 xenograft; 250 mg/kg BID x28, p.o.): 1 out of 10; tumors large enough for analysis at day 28 (Karpas-422 xenograft; 500 mg/kg BID x28, p.o.): too small for analysis; anti-tumor effect in Karpas-422 xenograft model (in words) (Karpas-422 xenograft; oral, BID, up to 28 days, 62.5-500 mg/kg): tumor stasis and regression; tolerability (in words) [5]: well tolerated; IC50 (CYP2C8): > 100 µM"
"CCN(c1cc(C#CCN2CCOCC2)cc(C(=O)NCc2c(C)cc(C)[nH]c2=O)c1C)[C@H]1CC[C@H](N(C)CCOC)CC1 [Compound 2, N-((4,6-dimethyl-2-oxo-1,2-dihydropyridin-3-yl)methyl)-3-(ethyl((trans)-4-((2-methoxyethyl)(methyl)amino)cyclohexyl)amino)-2-methyl-5-(3-morpholinoprop-1-yn-1-yl)benzamide]",,,,,124.70%,120.90%,22.3 µM,"time-, concentration-, and NADPH-dependent inactivation of CYP3A4/5",> 100 µM,> 100 µM,> 100 µM,> 100 µM,> 100 µM,14.8 mL/min/kg,34.3 mL/min/kg,17.6 mL/min/kg,low metabolic clearance,8.8 mL/min/kg,32.8 mL/min/kg,no significant reversible inhibition,IC50 (CYP2C8): > 100 µM; IC50 (CYP2D6): > 100 µM
"CCN(c1cc(C#CC2CCN(C)CC2)cc(C(=O)NCc2c(C)cc(C)[nH]c2=O)c1C)C1CCOCC1 [Compound 105, N-((4,6-Dimethyl-2-oxo-1,2-dihydropyridin-3-yl)methyl)-3-(ethyl(tetrahydro-2H-pyran-4-yl)amino)-2-methyl-5-((1-methylpiperidin-4-yl)ethynyl)benzamide]",3.0%,4.4%,25.5%,52.2%,103.19%,97.49%,10.2 µM,"time-, concentration-, and NADPH-dependent inactivation of CYP3A4/5",33.6 µM,> 100 µM,75.7 µM,9.67 µM,> 100 µM,47.5 mL/min/kg,64.2 mL/min/kg,54.7 mL/min/kg,low metabolic clearance,42.1 mL/min/kg,74.8 mL/min/kg,potentially significant inhibition of CYP2D6 and CYP3A4 (midazolam),CYP2C9 % Positive Control (CYP2C9 [2]; 1 μM): 50.4%; CYP2C9 % Positive Control (CYP2C9 [2]; 10 μM): 76.3%; CYP3A % Positive Control (CYP3A; 1 μM): 18.1%; CYP3A % Positive Control (CYP3A; 10 μM): 33.8%; IC50 [15]: < 0.01 µM; IC50 (EZH2 (PRC2 complex)): 0.0084 µM; IC50 (CYP2D6): 2.95 µM
